In patent publication US20260258057A1, “CRYSTAL OF BORATE DERIVATIVE, METHOD FOR PREPARING SAME, AND USE THEREOF” (Reistone Biopharma Company Limited, priority 2022, published 2026):
pIC50: −log10 of the molar value. Values belong to the compound of their own block, whether it stands above or below them.

How the values were obtained:
[1] = test system: IL-23 secretion in DC cells; assay: Inhibition of Zymosan-stimulated IL-23 secretion in DC cells differentiated from human mononuclear cells; type: cell-based; conditions: Zymosan 200 μg/ml, 24 hours, ELISA
Procedure: Day 0: Mononuclear cells were isolated from fresh human peripheral blood and purified, and then resuspended in RPMI-1640 complete medium. When differentiation into DC cells took place, IL-4 at a concentration of 50 ng/ml and GM-CSF at 100 ng/ml were added to the medium, and the cells were cultured at a density of 1×10^6 cells/mL in a culture dish with a diameter of 100 mm for differentiation in an incubator at 37° C. with a carbon dioxide concentration of 5%. Day 3: Half the volume of RPMI complete medium was replaced with fresh RPMI complete medium, and the concentrations of IL-4 and GM-CSF were maintained at 50 ng/ml and 100 ng/ml respectively. Day 6: Non-adherent cells (DC cells) in the culture dish were collected and washed with PBS. The washed DC cells were resuspended with RPMI complete medium at a density of 1×10^6 cells/mL. Then, 1×10^5 DC cells were added to each well of the 96-well cell culture plate and pre-incubated for 1 hour with different dilutions of the compounds to be tested (or DMSO blank negative control at an equivalent concentration), followed by addition of 200 μg/ml of TLR2 agonist Zymosan to stimulate the DC cells for 24 hours. Day 7: After the DC cells were stimulated by Zymosan for 24 hours, the supernatant in each well of the 96-well plate was collected and detected by ELISA for the concentration of IL-23.

[2] = test system: imiquimod-induced mouse model of psoriasis; assay: Imiquimod-induced psoriasis suppression assay; type: in vivo, Balb/c female mice; design: key to Erythema score, Mean / Psoriasis score, Mean / Thickness score, Mean: 0-5 scale, higher = more severe; key to Total clinical score, Mean: sum of 0-5 component scores; higher = more serious disease; conditions: for Ratio of spleen to body weight, Mean: Day 7, percentage of spleen to body weight; for Erythema score, Mean / Psoriasis score, Mean / Thickness score, Mean: Days 1-7; for Total clinical score, Mean: Days 1-7, endpoint of the experiment; for Effect on clinical score at the endpoint of the experiment / Effect on the ratio of spleen to body weight / Effect on the increase in skin thickness: Compound A 0.03%, versus model group; for Effect on clinical score at the endpoint of the experiment: each dose of Compound I (0.01%, 0.03%, 0.1%); for Effect on the ratio of spleen to body weight: three dose groups of Compound I; for Effect on the increase in skin thickness: Compound I low and high dose groups
Text: An appropriate amount of Compound I was formulated into an ointment with the following components: 0.1% of Compound I, 9% of hexanediol, 78.8% of white petrolatum, 5% of paraffin, 7% of glyceryl mono- and di-stearate, and 0.1% of dihydroxybutyl toluene, which were mechanically stirred until an ointment was formed.
7-Week-old Balb/c female mice were used and the hair on their back in an area of 2 cm×3 cm was shaved the day before the experiment. On Days 1-7 of the experiment, the test compounds were applied on the skin, and after 6 hours, imiquimod (IMQ) ointment (Aldara (5%)) was continuously applied to the back skin of mice for 7 days, so as to establish a mouse model of psoriasis, while the control group was given the same dose of petrolatum ointment. On Days 3, 5 and 7, the severity of skin inflammation was assessed, including measurement of skin thickness, crusting and erythema, scored on a 5-point scale (0-5) respectively. The total score was used to assess the severity of skin inflammation. On Day 7 of the experiment, the spleen was collected and weighed, and the percentage of spleen to body weight was calculated to assess the immunosuppressive effect of the drug.
Normal control group, model control group, low, medium and high dose groups of Compound I (0.01%, 0.03% and 0.1%), and 0.03% reference Compound A group were set up in this experiment.
The total score of the degree of skin inflammation are the clinical score, the indicators of which are relatively subjective, and higher score indicated more serious disease. The degree of increase in skin thickness was an objective assessment indicator, and more increase in thickness indicated more serious disease. The ratio of spleen to body weight was an objective assessment indicator, and smaller ratio of spleen to body weight indicated stronger immunosuppressive effect of the drug.

[3] = target: T1, PDE4B1 enzyme (Homo sapiens, UniProt Q07343); assay: In vitro PDE4B enzyme activity detection assay (IMAP FP, FAM-cAMP substrate); type: biochemical; conditions: PDE4B1 0.04 nM, FAM-cAMP 0.1 μM, 25° C. 30 min
T1 construct: purchased BPS 60041
T1 sequence (Q07343 whole entry): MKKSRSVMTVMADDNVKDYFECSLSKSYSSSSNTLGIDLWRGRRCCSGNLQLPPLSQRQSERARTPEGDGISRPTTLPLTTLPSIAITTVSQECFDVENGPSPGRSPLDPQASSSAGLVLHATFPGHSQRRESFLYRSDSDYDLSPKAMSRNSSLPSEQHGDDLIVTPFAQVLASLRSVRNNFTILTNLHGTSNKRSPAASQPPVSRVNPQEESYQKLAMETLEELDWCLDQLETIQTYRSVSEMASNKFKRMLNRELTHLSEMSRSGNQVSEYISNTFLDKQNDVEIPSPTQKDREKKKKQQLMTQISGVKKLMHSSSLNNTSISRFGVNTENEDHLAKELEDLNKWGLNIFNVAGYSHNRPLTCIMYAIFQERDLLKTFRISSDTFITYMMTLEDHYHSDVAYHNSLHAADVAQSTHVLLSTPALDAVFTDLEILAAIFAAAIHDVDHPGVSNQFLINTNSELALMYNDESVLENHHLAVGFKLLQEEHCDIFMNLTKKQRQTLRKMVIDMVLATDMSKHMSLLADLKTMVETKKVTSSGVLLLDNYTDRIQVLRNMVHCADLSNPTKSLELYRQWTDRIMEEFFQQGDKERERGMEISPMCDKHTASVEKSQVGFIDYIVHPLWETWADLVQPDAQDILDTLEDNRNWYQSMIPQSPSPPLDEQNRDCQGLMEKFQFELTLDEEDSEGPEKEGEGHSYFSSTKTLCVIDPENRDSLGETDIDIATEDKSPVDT
Procedure: A stock solution of the compound at a concentration of 10 mM was prepared in a test tube with 90% DMSO (10% water), and it was used to prepare a series of dilutions with a dilution factor of 1:5 and final concentrations starting from 100 μM and lowering to 0.05 nM.
0.2 μl of the solution of the compound was transferred into a 384-well reaction plate, and 0.2 μl of 100% DMSO was transferred into both the negative and positive controls. Then, 10 μl of 2×PDE4B1 enzyme solution (a final concentration of 0.04 nM) was added to the wells, and 10 μl of 1× reaction buffer (50 mM HEPES, pH 7.5, 0.0015% Brij-35) instead of the enzyme solution was added to the wells of the control without enzyme activity. The plate was centrifuged at 1,000 rpm for 1 min and incubated at room temperature for 15 min. Next, 10 μl of 2×FAM-CAMP substrate solution (a substrate final concentration of 0.1 μM) was added to each well of the 384-well reaction plate. The plate was centrifuged at 1,000 rpm for 1 min, and the reaction was carried out at 25° C. for 30 min. […]
After completion of the incubation, the RLU data were read and the inhibition rate was calculated. The IC50 value was calculated from the concentration-inhibition fitted curve, wherein the maximum value refers to the reading of the DMSO control and the minimum value refers to the reading of the control without enzyme activity.

[4] = test system: TNF-α release in PBMCs; assay: Inhibition of LPS-induced TNF-α release in peripheral blood mononuclear cells; type: cell-based; conditions: PBMC; LPS 0.1 ng/ml, 24 hours, ELISA
Procedure: Frozen PBMCs were thawed and detected by Trypan blue staining for cell viability and number. The thawed PBMCs were washed with RPMI1640 complete medium (RPMI1640+10% FBS+1% PS) and centrifuged, and the supernatant was discarded. The PBMCs were resuspended with RPMI1640 complete medium and the cell density was adjusted to 2×10^6 cells/mL. 2×10^5 PBMC cells were plated in a 96-well cell culture plate, and the compounds to be tested were added at different concentrations, in a 1:5 serial dilution of 9 concentrations starting from a maximum compound concentration of 100 μM, each in duplicate wells. LPS was added at a final concentration of 0.1 ng/ml, making a total volume of 200 μL. For the negative and positive controls, only LPS and DMSO were added to the negative control wells, while 1 μg/mL of dexamethasone as a positive control was added to the positive control wells in addition to cells and LPS. The cells were incubated for 24 hours in an incubator at 37° C. After completion of the incubation, 100 μL of cell culture supernatant was collected and detected by ELISA for the TNF-α level. 100 μL of CellTiter-Glo was added to the remaining cells in each well to detect the level of cell viability. The IC50 values of inhibition on TNF-α release by the compounds were calculated.

[5] = Dynamic vapor sorption (DVS) hygroscopicity; type: physicochemical
Text: The ‘9103 Guidelines for Hygroscopicity of Drugs’ in Volume IV of the 2015 edition of Chinese Pharmacopoeia describes the characteristics of hygroscopicity and defines the weight gain by hygroscopicity as follows, • deliquescent: absorbing sufficient moisture to form a liquid; • extremely hygroscopic: the weight gain by hygroscopicity being no less than 15%; • hygroscopic: the weight gain by hygroscopicity being less than 15% but not less than 2%; • slightly hygroscopic: the weight gain by hygroscopicity being less than 2% but not less than 0.2%; • no or almost no hygroscopic: the weight gain by hygroscopicity being less than 0.2%.
The detection is performed using SMS Intrinsic PLUS at 25° C., with humidity change of 50%-0%-90% with a step size of 10%, in which the criteria for judging is that the mass change dM/dT for each gradient is less than 0.0002%, TMAX is 360 min, and two cycles are performed.

[6] = Stability test I of crystal form A (temperature and humidity; HPLC and XRPD); type: physicochemical
Procedure: (§1) 5. High performance liquid chromatography (HPLC) described in the stability test of the crystal form A of the present disclosure is determined on Agilent 1260 Infinity II under the following HPLC conditions: chromatographic column of Agilen XDB C18 5 μm 4.6×250 mm; mobile phase of A—0.05% TFA (in water), and B—ACN; flow rate of 1.0 ml/min; wavelength of 220 nm.
It is determined whether temperature and humidity have an influence on the stability of crystal form A of the compound of formula I.
The crystal form A was placed in a stabilizing chamber for accelerated stability tests under a series of temperature and humidity combinations. After being placed for different days under various temperature and humidity conditions, the samples were taken out and compared with the initial crystal form A. The content of the compound of formula I was determined by high performance liquid chromatography, and XRPD detection was performed.

[7] = Stability test II of crystal form A (light; HPLC and XRPD); type: physicochemical
Procedure: as §1
It is determined whether light has an influence on the stability of crystal form A of the compound of formula I.
The crystal form A was placed in a light stabilizing chamber, and taken out after reaching ICH strength. The resulting solid was compared with the initial crystal form A. The content of the compound of formula I was determined by high performance liquid chromatography, and XRPD detection was performed.

pIC50 [1]: 9.21
Compound: CCCOc1cc(-c2cncc([C@@H]3COB(O)C3)c2)ccc1OC [Compound A, reference compound]
Ratio of spleen to body weight, Mean ([2]; 0.03% applied on skin): 0.96
Erythema score, Mean ([2]; 0.03% applied on skin): 3.33
Psoriasis score, Mean ([2]; 0.03% applied on skin): 2.5
Thickness score, Mean ([2]; 0.03% applied on skin): 2.5
Total clinical score, Mean ([2]; 0.03% applied on skin): 8.33
Effect on clinical score at the endpoint of the experiment [2]: significantly reduce
Effect on the ratio of spleen to body weight [2]: no significant effect
Effect on the increase in skin thickness [2]: no significant effect

pIC50 [3]: 9.77
pIC50 [1]: 10.74
Compound: COc1ccc(-c2cncc([C@@H]3COB(O)C3)n2)c2c1OC(C)(C)CC2 [Compound I, (R)-4-(6-(8-methoxy-2,2-dimethylbenzodihydropyran-5-yl)pyrazin-2-yl)-1,2-oxaborocyclopentan-2-ol]
pIC50 [4]: 10.26
Ratio of spleen to body weight, Mean ([2]; 0.01% applied on skin): 0.64
Erythema score, Mean ([2]; 0.01% applied on skin): 4
Psoriasis score, Mean ([2]; 0.01% applied on skin): 3.13
Thickness score, Mean ([2]; 0.01% applied on skin): 2.38
Total clinical score, Mean ([2]; 0.01% applied on skin): 9.5
Inhibitory effect on the increase in skin thickness compared with Compound A at the same dose ([2]; 0.03%): significantly higher
Ratio of spleen to body weight, Mean ([2]; 0.03% applied on skin): 0.43
Erythema score, Mean ([2]; 0.03% applied on skin): 3.86
Psoriasis score, Mean ([2]; 0.03% applied on skin): 2.14
Thickness score, Mean ([2]; 0.03% applied on skin): 1.57
Total clinical score, Mean ([2]; 0.03% applied on skin): 7.57
Ratio of spleen to body weight, Mean ([2]; 0.1% applied on skin): 0.31
Erythema score, Mean ([2]; 0.1% applied on skin): 3.63
Psoriasis score, Mean ([2]; 0.1% applied on skin): 1.38
Thickness score, Mean ([2]; 0.1% applied on skin): 1.75
Total clinical score, Mean ([2]; 0.1% applied on skin): 6.75
Effect on clinical score at the endpoint of the experiment [2]: significantly reduce
Effect on the ratio of spleen to body weight [2]: significantly reduce
Effect on the increase in skin thickness [2]: significantly inhibit

pIC50 [1]: 7.89
Compound: O=C(Nc1c(Cl)cncc1Cl)c1ccc(OC(F)F)c(OCC2CC2)c1 [Roflumilast]

Weight gain by hygroscopicity ([5]; accelerated experimental conditions, 70% RH): approximately 0.15%
Crystal form before and after DVS detection (XRPD) ([5]; after DVS, humidity 0% to 90% RH): does not change
Weight gain by hygroscopicity ([5]; extreme conditions, 90% RH): approximately 0.70%
Weight gain by hygroscopicity ([5]; normal storage conditions, 25° C., 60% RH): approximately 0.08%
Purity ([6]; 55 °C, 30% humidity, 18 days): 98.01%
Purity ([6]; 55 °C, 79% humidity, 20 days): 97.40%
Purity ([6]; 65 °C, 11% humidity, 20 days): 97.74%
Purity ([6]; 65 °C, 50% humidity, 20 days): 96.16%
Purity ([6]; 65 °C, 75% humidity, 20 days): 95.86%
Purity ([6]; 70 °C, 11% humidity, 20 days): 97.33%
Purity ([6]; 75 °C, 0% humidity, 20 days): 97.41%
Purity ([6]; 75 °C, 50% humidity, 7 days): 96.57%
Purity ([6]; initial, 0 days): 97.99%
Purity ([7]; At 0): 97.99%
Purity ([7]; Light-0.5 ICH): 97.76%
Purity ([7]; Light-1.0 ICH): 97.15%
Compound: COc1ccc(-c2cncc([C@@H]3COB(O)C3)n2)c2c1OC(C)(C)CC2 [crystal form A, (R)-4-(6-(8-methoxy-2,2-dimethylbenzodihydropyran-5-yl)pyrazin-2-yl)-1,2-oxaborocyclopentan-2-ol]
Overall stability under temperature and humidity combinations ([6]; accelerated stability tests, Table 4 conditions): remains unchanged and exhibits good stability
